Experimental data from patent EP0372603A2, “Antibacterial oral composition” (Colgate-Palmolive Company, priority 1988, dated 1990).

Legend:
[1] = Gingivitis/plaque/stain evaluation in monkeys sprayed with rinse once daily for 6 weeks; format: in vivo, squirrel monkeys; design: key to Final Gingival Index: 0 = clinically normal gingiva to 4 = obvious redness with bleeding; Initial Stain Index / Final Stain Index: scale not given here; details: for Final Gingival Index: once daily spray 30 seconds; for Initial Gingival Index: baseline before treatment, scale 0-4; for Initial Plaque Index: modified Quigley-Hein index
Description: Adult squirrel monkeys are prepared for a gingivitis/plaque/stain evaluation including thorough prophylaxis. 36 surfaces (maxillary and mandibular; mesial, buccal and distal) are initially evaluated for plaque by a modified Quigley-Hein index and gingival inflation by the following scale: 0 - clinically normal; pink, form, knife-like gingival margin, triangular interdental papilla; 1 - change in the form of gingiva; gingival margin may be slightlyenlarged, no longer knife-like and firm, no color change; 2 - slight color change of marginal gingiva of interdental papilla, discrete areas of redness at most cornal surfaces of the free gingiva; 3- obvious color change in marginal gingiva or interdental papilla, no bleeding on probing; 4 - obvious color change; redness obvious; in addition, bleeding on probing or spontaneous bleeding.
The squirrel monkeys are then divided into 3 groups of four and each is treated in a double blind manner once daily for 6 weeks. All dentitions are sprayed for 30 seconds from polyethylene bottles containing rinse solution.
Initial and 6 week evaluations for three studies for plaque formation and gingival inflamation and 6 week evaluations for stain (indicate general protocol) follow, with stain TABLE 4

[2] = system: in vitro plaque which is formed by Actinomyces viscosus and strep mutans on extracted human teeth; assay: Antiplaque effect on in vitro plaque on extracted human teeth (visual score and erythrosine dye extraction); format: cell-based
Description: The antiplaque effect of chlorhexidine in the presence of aminoguanidine is determined by rinsing in vitro plaque which is formed by Actinomyces viscosus and strep mutans on extracted human teeth for 30 seconds once per day for three days with the full strength rinses below. The plaque growth is induced on teeth by daily transferring the teeth to an inoculated fresh medium (tryptocase soy broth). The amount of plaque is scored visually as well as after disclosing with erythrosine dye. The dye is then extracted with ethanol. The amount of the dye adsorbed is directly proportional to the amount of the plaque on teeth. The dye concentration is measured spectrophotometrically at wavelength 533nm.

[3] = In vitro stain retention on hydroxyapatite (bovine serum albumin/acetaldehyde browning model); details: 0.12, 0.25 and 1.0% of aminoguanidine gluconate with 0.12% CHX
Description: The following in vitro method correlates with and simulates the reaction whereby hydroxyapatite tooth mineral material is stained brown:
2.0 g hydroxyapatite (HAP), 10 ml of 25% Bovine Serum Albumin in 0.1M phosphate buffer (pH 7.0), 2.5 ml of 0.1M phosphate buffer containing mono-basic and di-basic sodium orthophosphate (pH 7), 25.0 ml of a test sample and 12.5 ml of 30% buffered acetaldehyde (pH 7) are mixed for 24 hrs. at 37 °C. The HAP is filtered and dried at 37 °C. The color retained on the HAP powder is qualified with a Gardner Color Difference Meter.

[4] = system: Actinomyces viscosus cells; assay: Antibacterial effect: full strength rinses exposed to cells for 60 seconds, CFU count; format: cell-based
Description: The antibacterial effect of chlorhexidine in the presence of aminoguanidine is determined by exposing the following full strength rinses to Actinomyces viscosus cells for 60 seconds.

For [H]/N=C(\N/C(=N/[H])NCCCCCCNC(=N)NC(=N)Nc1ccc(Cl)cc1)Nc1ccc(Cl)cc1 [CHX, chlorhexidine gluconate], the “Final Plaque Index” value ([1]; Study A, after 6 weeks) was 1.24, the “Final Gingival Index” value ([1]; Study A, after 6 weeks) was 0.49 and the “Initial Gingival Index” value ([1]; Study A) was 0.43. For the same molecule, the “Initial Plaque Index” value ([1]; Study A, baseline) was 0.55, the “Final Plaque Index” value ([1]; Study B, after 6 weeks) was 0.47 and the “Final Stain Index” value ([1]; Study B, after 6 weeks) was 0.62. The “Final Gingival Index” value ([1]; Study B, after 6 weeks) was 0.47, the “Initial Stain Index” value ([1]; Study B, baseline) was 0.01 and the “Initial Gingival Index” value ([1]; Study B) was 0.54. For the same molecule, the “Initial Plaque Index” value ([1]; Study B, baseline) was 0.15, the “Final Plaque Index” value ([1]; Study C, after 6 weeks) was 0.83 and the “Final Gingival Index” value ([1]; Study C, after 6 weeks) was 0.63. For the same molecule, the “Initial Gingival Index” value ([1]; Study C) was 0.56 and the “Initial Plaque Index” value ([1]; Study C, baseline) was 0.53.
With N=C(N)NN [Aminoguanidine, Hydrazine Carboximidamide (aminoguanidine)] the “antiplaque activity (in words)” value ([2]; 0.25% Aminoguanidine alone) was “no antiplaque activity”, the “effect on antiplaque activity of chlorhexidine (in words)” value ([2]; 0.25% Aminoguanidine with CHX) was “does not compromise the antiplaque activity of chlorhexidine” and the “chlorhexidine induced stain (in words)” value [3] was “reduces the chlorhexidine induced stain at least to about the level of the placebo”. The “antibacterial effect (in words)” value ([4]; 0.25% Aminoguanidine alone) was “no antibacterial effect” and the “effect on antibacterial activity of chlorhexidine (in words)” value ([4]; 0.25% Aminoguanidine with CHX) was “does not compromise antibacterial activity of chlorhexidine”.
